Assay [1] deals with E. coli strain JP750. The format is cell-based, Escherichia coli. The note with it: for chromosomes exhibiting doughnut or ring shape: lethal dose (MIC), 2 hours, n=50; for chromosome morphology: 2 hours treatment; for cell length: cell elongation, FIG. 2 / FIG. 3. How it is done: The dose-dependent cytological profiles for the various classes of antibiotics was determined. In general, a series of cultures of the appropriate strain were grown in LB at 30° C. until the cultures reached a density of approximately 2×10^8 cells/ml, at which point the compound of interest was added so that the final concentrations ranged from 0 to 200 μg/ml. For each compound, samples representing ⅕×, 1× and 5× the MIC were examined. Samples were taken at various times after addition of drug (ranging from 0.2 to 3 hours). The cells were stained with FM 4-64 (1 μg/ml) to visualize the cell membranes and DAPI (5 μg/ml) to visualize the chromosome (Pogliano et al. (1999) Mol. Microbiol. 31:1149).
Images of each stain and any fluorescently-tagged fusion protein present in the strain were then captured using a high resolution microscope. Cell length and width, chromosome length and shape, distance of the chromosome from each cell pole, the number of chromosomes per cell, and the presence and distribution of GFP (or GFP fusions) present within the cells were measured.
Strain JP750 expresses a SeqA-GFP fusion from an IPTG dependent promoter. SeqA-GFP forms fluorescent foci that indicate the position of DNA replication forks/hemimethylated DNA within the cell (Brendler et al. (2000) EMBO 19:6249). After two hours of growth, samples were taken, stained with FM 4-64 (1 μg/ml) to visualize the cell membranes, and DAPI (5 μg/ml) to visualize the chromosome.

The test system of assay [2] is E. coli strains JP750 or W3110. Description: Determination of MIC (growth in LB with antibiotic). The assay is classed as cell-based. As to conditions: Escherichia coli, read-out: minimal inhibitory concentration (MIC). As to the method: The minimal inhibitory concentration (MIC) of each antibiotic was determined for E. coli strains JP750 or W3110, and for Bacillus subtilis strain PY79. A test tube containing 5 ml of LB was inoculated with a single colony and grown until the culture reached a density of approximately 2×10^8 cells/ml. Small inoculums (20 μl) of this culture were then diluted into LB containing various concentrations of antibiotic ranging from 0 to 200 μg/ml and the cultures were incubated overnight at 30° C. The MIC was the lowest concentration that blocked growth.

Assay [3] concerns Escherichia coli and Bacillus subtilis cells. The assay can be described thus: Summary of cytological profiles by mechanism of action (FIG. 1). The format is cell-based. The note with it: example compound of the MOA class. How it is done:
FIG. 1. Summary of cytological profiles for drugs with the indicated mechanisms of action (MOA).
To determine if different classes of antimicrobials can be distinguished based on cytological parameters, comparative cytological analysis of Escherichia coli and Bacillus subtilis cells treated with several different classes of antibiotics was performed. […] Also included were nonspecific inhibitors such as bleach, ethidium bromide, and sodium docecyl sulfate. […] This analysis is expanded to molecules with unknown MOAs as described below.

For assay [4], the system named is gram positive bacteria and the E. coli imp mutant. As to conditions: Kang et al. (2009); Pache & Champman (1972); cited from earlier work.
For another assay, the system named is E. coli imp strain. The assay can be described thus: Cytological profiling of E. coli imp strain (DAPI staining intensity). The assay is classed as cell-based, Escherichia coli. As to conditions: 10 minute exposure, FIG. 10. How it is done:
FIG. 10. Measurements of DAPI staining for single cells after 10 minute exposure to nisin, Spirohexenolide A, chlorothricin, and DMSO. […] Cells treated with nisin, SpiroA, and chlorothricin show increased fluorescence comparted to untreated control.
Cytological profiling was used to determine the MOA of spirohexenolide A. A culture of the E. coli imp strain was grown in LB media at 30° C. and spirohexenolide A was added at various concentrations. After either 10 minutes or two hours, samples were stained with FM 4-64 and DAPI for examination with a fluorescence microscope. The cytological profile of spirohexenolide A was identical to that for nisin, a compound that forms channels in the membrane. Chromosome stains such as DAPI and Sytox green are partially excluded from the cell by the cytoplasmic membrane in untreated cells, but are taken up in cells treated with permeablizers such as nisin.

The next assay has as its system Bacillus subtilis. The assay can be described thus: Cytological profiling of Bacillus subtilis (FM 4-64, DAPI, Sytox Green). The format is cell-based. The note with it: FIG. 8. As to the method:
(§1) FIG. 8. Affect of various treatments on Bacillus subtilis cell architecture and permeability. (A-J) Cytological profiling. Cells were stained with the membrane stain FM 4-64 (red) and the membrane impermeable nucleotide stains Sytox Green (green) and DAPI (blue) and visualized 2 hours after treatment unless otherwise noted. […] Cells imaged after 1 hr of treatment. […] Cells were imaged after 8 hours. (K) Cell permeability as assessed by Sytox staining intensity per pixel.
The effects of these drugs on the Gram positive bacterium Bacillus subtilis was determined using the fluorescent membrane stain FM 4-64 and two nucleotide stains that are membrane impermeable (DAPI and Sytox).

Assay [5] relates to proton motive force (PMF). The assay can be described thus: DiSC3(5) fluorometer assay of proton motive force. The assay is classed as cell-based, Bacillus subtilis. As to conditions: vancomycin at the MIC. As to the method:
as §1
The fluorescent stain DiSC3(5) was used in a fluorometer assay, in which cells with a decreased PMF show increased fluorescence.

The subject of another assay is E. coli. Description: Growth curve (optical density at 600 nm). The format is cell-based, Escherichia coli.
Assay [6] concerns E. coli strain JP750. As to conditions: Pogliano et al. 1997; cited from earlier work.

Converted amounts (≈) assume the structure as drawn. Like-named read-outs stand apart in the source and are kept apart here.

On to polymyxin B, for which the “cytological profile compared with reference” value in the assay with E. coli strain JP750 [1] (two hours at the MIC) is “cytological profile similar to CHIR-090”.
For `CN(C)[C@@H]1C(O)=C(C(N)=O)C(=O)[C@@]2(O)C(O)=C3C(=O)c4c(O)cccc4[C@@](C)(O)[C@H]3C[C@@H]12` [tetracycline], the “chromosomes exhibiting doughnut or ring shape” value with E. coli strain JP750 [1] worked out at 98%. Moreover, the MIC in assay [2] (LB, overnight at 30° C.) was 20 µg/mL (≈ 45 µM).
Consider `C[C@@H](O)[C@H](NC(=O)c1ccc(C#Cc2ccc(CN3CCOCC3)cc2)cc1)C(=O)NO` [CHIR-090], for which, in [3], the “cytological profile (FIG. 1 summary)” value was “produces chains of cells with increased permeability”.
As to `[H]/N=C(/N)N[C@H]1[C@H](O)[C@@H](O)[C@H](O[C@@H]2O[C@@H](C)[C@](O)(C=O)[C@H]2O[C@@H]2O[C@@H](CO)[C@H](O)[C@@H](O)[C@@H]2NC)[C@@H](N/C(N)=N\[H])[C@@H]1O` [streptomycin], in the assay with E. coli strain JP750 [1], the “chromosome morphology” value is listed as “condensed chromosomes but not ring formation”. Besides, the MIC in assay [2] (LB, overnight at 30° C.) is 50 µg/mL (≈ 86 µM).
On to `COc1ccc(Cl)c(C)c1C(=O)O[C@@H]1C[C@H](O[C@H]2[C@H](O)C[C@H](O[C@H]3CCC[C@@H]4[C@@H]3C=C[C@H]3CCCC/C=C/[C@@H]5C=C(C(=O)O)[C@H](C)C[C@]56OC(=O)C(=C6O)OC(=O)[C@@]43C)O[C@@H]2C)O[C@H](C)[C@H]1O` [chlorothricin], for which, in assay [4], the antibacterial spectrum result is “active against gram positive bacteria and the E. coli imp mutant”. In the assay with E. coli imp strain, the “DAPI staining” value is listed as “increased DAPI staining”.
On to `COc1cc(Cc2cnc(N)nc2N)cc(OC)c1OC` [trimethoprim], for which the “cytological profile (FIG. 1 summary)” value in [3] is recorded as “condense the chromosome without affecting cell width”.
As for nisin, the “cytological phenotype (membrane, chromosome, permeability)” value (from here on “cytological phenotype”) with Bacillus subtilis was “increased DAPI and Sytox staining”. Besides, in assay [3], the “cytological profile (FIG. 1 summary)” value was “show increased permeability at early times”. Further, in assay [5], the “effect on proton motive force / membrane polarization” value is reported as “rapidly collapse the proton motive force (PMF)”. The “DAPI staining intensity relative to untreated (WT) cells” value with E. coli imp strain was determined as 5 ×.
As to `O=C(N[C@H](CO)[C@H](O)c1ccc([N+](=O)[O-])cc1)C(Cl)Cl` [chloramphenicol], the “cytological profile (FIG. 1 summary)” value in assay [3] was “leads to a toroidal chromosome and wider cells”. In addition, in the assay on E. coli strain JP750 [1], the “chromosome morphology” value is “caused chromosomes to form rings” and the “chromosomes exhibiting doughnut or ring shape” value was 98%. Moreover, the “distance between edge of chromosome and cell pole” value in the assay on E. coli strain JP750 [1] (lethal dose (5 μg/ml), two hours) was “dramatic increase”. The MIC in assay [2] (LB, overnight at 30° C.) turned out to be 5 µg/mL (≈ 15.5 µM).
In the case of `CCn1cc(C(=O)O)c(=O)c2ccc(C)nc21` [nalidixic acid], the “cytological profile (FIG. 1 summary)” value in [3] is “produces elongated cells with centrally localized and fragmented DNA”. For the same molecule, in the assay with E. coli strain JP750 [1], the “chromosome morphology” value is “elongated chromosomes” and the “cell length” value was “caused elongation”. The SeqA-GFP foci distribution entry in the assay with E. coli strain JP750 [1] (LB, 30° C., FIG. 2) is “highly elongated chromosomes in which the SeqA foci are clustered together”. The “effect on growth (optical density at 600 nm)” value with E. coli (five-fold below the MIC) was “no detectable effect on growth”. Also, the effect on growth entry in the assay with E. coli (lethal dose (1×MIC)) was “reduced growth”. Moreover, the MIC in assay [2] worked out at 0.5 µg/mL (≈ 2.15 µM).
On to `CN[C@H](CC(C)C)C(=O)N[C@H]1C(=O)N[C@@H](CC(N)=O)C(=O)N[C@H]2C(=O)N[C@H]3C(=O)N[C@H](C(=O)N[C@H](C(=O)O)c4cc(O)cc(O)c4-c4cc3ccc4O)[C@H](O)c3ccc(c(Cl)c3)Oc3cc2cc(c3O[C@@H]2O[C@H](CO)[C@@H](O)[C@H](O)[C@H]2O[C@H]2C[C@](C)(N)[C@H](O)[C@H](C)O2)Oc2ccc(cc2Cl)[C@H]1O` [vancomycin], for which, in the assay with Bacillus subtilis, the “cytological phenotype” value was “internal membrane vesicles and increased DAPI and Sytox permeability in a subset of the cells”. In addition, the “cytological profile (FIG. 1 summary)” value in assay [3] is given as “produces large internal membrane vesicles”. Besides, in [5], the “effect on proton motive force / membrane polarization” value is recorded as “no effect on PMF”.
On to `NC[C@H]1O[C@H](O[C@H]2[C@H](O)[C@@H](O[C@H]3O[C@H](CO)[C@@H](O)[C@H](N)[C@H]3O)[C@H](N)C[C@@H]2N)[C@H](O)[C@@H](O)[C@@H]1O` [kanamycin], for which, in [2] (LB, overnight at 30° C.), the MIC worked out at 50 µg/mL (≈ 103 µM).
`CC1=C(C(=O)O)N2C(=O)[C@@H](NC(=O)[C@H](N)c3ccccc3)[C@H]2SC1` [cephalexin]: in the assay on E. coli strain JP750 [6], the “chromosome shape” value is given as “chromosome shape is not affected”. For the same molecule, the “cytological profile (FIG. 1 summary)” value in [3] was “produces elongated cells with multiple chromosomes”. In addition, in the assay on E. coli strain JP750 [1], the “cell length” value is reported as “elongated”.
As to `[Na+].[O-]Cl` [bleach], the “cytological profile (FIG. 1 summary)” value in assay [3] is reported as “causes the chromosome to condense into a dramatic ribbon-like structure”.
With `CC1(C)S[C@@H]2[C@H](NC(=O)Cc3ccccc3)C(=O)N2[C@H]1C(=O)O` [penicillin G], the “cytological phenotype” value in the assay on Bacillus subtilis was “cells with condensed chromosomes that lyse at various times”. Moreover, the “cytological profile (FIG. 1 summary)” value in assay [3] is “causes chromosome condensation and lysis”.
With `N#CC(C#N)=NNc1cccc(Cl)c1` [CCCP], the “cytological phenotype” value in the assay with Bacillus subtilis is “cells with uneven membrane staining and decondensed chromosomes”. In [5], the “effect on proton motive force / membrane polarization” value is “rapidly depolarizes the membranes”.
As to `CC1=C[C@]2(C)/C=C(C)/C=C/C[C@@H](O)/C=C3C=C/C(=C4\C(=O)O[C@]2(C[C@@H]1C)C4=O)OC/3` [Spirohexenolide A], the antibacterial spectrum entry in assay [4] was “active against gram positive bacteria and the E. coli imp mutant”. In the assay with E. coli imp strain, the “DAPI staining intensity relative to untreated (WT) cells” value is reported as 5 ×.
